Measured values published in patent US20240226178A1, “ELECTROPHYSIOLOGICAL MODIFICATION TO SUPPRESS ARRHYTHMIAS” (UNIVERSITY OF WASHINGTON, priority 2021, published 2024).

Key:
[1] = test system: RUES2 hESC-CMs wild-type; assay: MEA dose-response of compounds on spontaneous electrical activity of hESC-CMs; type: cell-based, human; details: for beating frequency / beat rate (effect in words) / spike amplitude (effect in words): RUES2 hESC-CMs wild-type on MEA, increasing doses vs DMSO control
Excerpt: FIGS. 6A-6F. […] Data shown as mean±SEM of 2 independent experiments each with 6 technical replicates (wells), and normalized on experimental baseline and expressed as % vs. DMSO control. Lines represents nonlinear regression of normalized response Y=100/(1+10^((LogIC50-X)*HillSlope))).
FIGS. 13A-13C. […] (FIGS. 13A, 13B, 13C) Dose-response curve of Mibefradil (ICaT, FIG. 13A), Zacopride (IK1 agonist, FIG. 13B) and Verapamil (L-type calcium channel inhibitor, FIG. 13C) on MEA system. Data shown as mean±SEM of 2 independent experiments normalized on baseline and expressed as % vs DMSO control (N=2, n=6). Lines represent nonlinear regression of normalized response Y=100/(1+10^((LogIC50-X)*HillSlope))).
The role of ion channels in automaticity has been so far largely studied in the context of the adult mouse sinoatrial node. Whether the same mechanisms also apply to hPSC-CMs and/or fetal human cardiomyocytes remains controversial. First, a variety of pharmacological compounds were tested on hPSC-CMs derived from the RUES2 human embryonic stem cells (hESCs), which were differentiated by sequential small molecule-based activation and inhibition of the WNT pathway. The inventors performed electrophysiological analyses using a multielectrode array (MEA) to record the effects of the different compounds on hPSC-CMs spontaneous electrical activity. […] Zacopride, reported to have agonistic effect on the Kir2.1 channel (encoded by KCNJ2) that mediates IKI currents, was also tested.
CytoView™ MEA 48 were coated with 0.17 mg/mL of Matrigel for 1 hour at 37° C. […] For spontaneous beat recording, spontaneous electrical activity was recorded for 5 min using Maestro™ Pro system at 37° C. with 5% CO2. Considering the irregular beat rate of the cell lines bearing KCNJ2 KI, the data are shown as total number of beats recorded per experiment, divided by the total time of recording (average beats/min). For pharmacological studies, the different compounds were diluted in DMSO and incubated directly on MEA plates for 5 min at 37° C. Effects on spontaneous beat rate was determined by recording for 15 min after drug incubation. Non-linear regression curve calculated as Y=100/(1+10^((LogIC50-X)*HillSlope))). […] Quantification of beat rate, spike amplitude and beat period irregularity was performed using Axis Navigator (beat detector threshold: 30-100 μV; Minimum beat period: 200-500 ms; Maximum beat period: 30s).

[2] = test system: EA in pigs; details: after hPSC-CM transplantation, reference [17]; cited from earlier work

| SMILES | beating frequency / beat rate (effect in words) [1] | spike amplitude (effect in words) [1] | also measured |
| --- | --- | --- | --- |
| CCOc1ccc(Oc2ccc(OCc3cc(F)ccc3F)cc2)c(N)c1 [SEA0400] | dose-dependent reduction | dose-dependent reduction |  |
| N=C(N)SCCc1ccc(OCc2ccc([N+](=O)[O-])cc2)cc1 [KB-R3702] | dose-dependent reduction | dose-dependent reduction |  |
| COc1cc(N)c(Cl)cc1C(=O)NC1CN2CCC1CC2 (stereo not shown) [Zacopride] | did not show measurable effects | did not show measurable effects |  |
| CC(C)(C)CCN1C[C@@H]2C(CNC(=O)c3cc(Cl)cc(Cl)c3)[C@@H]2C1 (stereo partly shown) [ML-218] | no effect on beating frequency until spike amplitudes were undetectable |  | LogIC50 ([1]; MEA dose-response, nonlinear regression of normalized response, log value, concentration unit not given): −4.8±0.1424; doses at which spike amplitude decreased ([1]; MEA, hESC-CMs): above 1 μM |
| COCC(=O)O[C@]1(CCN(C)CCCc2nc3ccccc3[nH]2)CCc2cc(F)ccc2[C@@H]1C(C)C [Mibefradil] |  |  | IC50 ([1]; Homo sapiens, MEA dose-response, nonlinear regression of normalized response, log value, concentration unit inferred): 20 nM |
| COc1ccc(CCN(C)CCCC(C#N)(c2ccc(OC)c(OC)c2)C(C)C)cc1OC (stereo not shown) [Verapamil] | progressively decrease | progressively decrease |  |
| COc1cc2c(cc1OC)CC(=O)N(CCCN(C)C[C@H]1Cc3cc(OC)c(OC)cc31)CC2 [Ivabradine] | potently reduced | did not alter | spontaneous AP firing ([1]; very high doses of ivabradine (100 μM)): did not prevent; effect on EA in pigs [2]: reduces heart rate but does not prevent EA |
